Results on eight molecules are retold here after PubChem BioAssay (NCI).

Several values for one entry are separate records, joined by “and”; a condition that tells them apart may be missing. Identical values can stand only once.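 48-hour exposure; five concentrations; linearly interpolated endpoints. GI50 = concentration required for 50% inhibition of growth. TGI denotes the concentration required for complete inhibition of growth.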 Where a SMILES comes first, the peptide text is derived from it. [ ]: non-standard residue; d: D form. Phe(F5) = N[CH](Cc1c(F)c(F)c(F)c(F)c1F)C(=O)O

Test in all cases: DTP human tumour cell line panel, 48 h
Test [1] relates to UO-31 renal.
The subject of test [2] is SR leukemia.
The test system of test [3] is KM12 colon.
Test [4] deals with MOLT-4 leukemia.
Test [5] concerns M14 melanoma.
Test [6] concerns MALME-3M melanoma.
Test [7] deals with EKVX NSCLC.
The subject of test [8] is T-47D breast.
The test system of test [9] is NCI-H522 lung.
Test [10] deals with SW-620 colon.

In general, GI50 refers to the concentration at which growth is held to half of that of the control. What is called TGI is the concentration at which net growth stops. Low values mean more potent growth arrest, high ones less potent growth arrest. Turning to `CCOC(=O)c1c2c(n(CC(C)C)c1C)-c1nc[nH]c1C(=O)C2=O`, the GI50 in [1] was 16.3 µM; in test [2], 0.384 µM; in test [3], 16.9 µM; in test [4], 2.57 µM; in [5], 23 µM; in test [6], 21.1 µM. The GI50 in [7] is 15 µM; in [8], 3.3 µM; in test [9], 15.7 µM; in test [10], 20.8 µM. In addition, the total growth inhibition concentration (TGI) in [1] is 29.9 µM; in [2], 2.15 µM; in [3], 31.2 µM; in test [4], 9.45 µM; in [5], 40.5 µM; in test [6], 36.6 µM. Further, the TGI was 28.2 µM in test [7], 14.3 µM in test [8], 29.4 µM in test [9] and 39.1 µM in [10].

For the molecule `CCc1ccc(NCc2cc(OC)c(OC)c(OC)c2)cc1`, the GI50 in test [1] was 1.37 µM and 3.95 µM; in [5], 0.261 µM and 0.392 µM; in test [9] it was 0.274 µM; in test [10], 0.0871 µM and 0.0541 µM. Besides, the TGI in [1] was 55.8 µM and 62.6 µM; in [2], 44.6 µM and > 100 µM; in test [3], 20.8 µM and 13.8 µM; in [4] it was 87.2 µM and > 91.5 µM; in [5], 27.6 µM; in test [6], 30.8 µM and 35.6 µM. Further, the TGI in [7] is > 96.1 µM and 84.3 µM; in [8], 74.5 µM; in [9] it was 0.59 µM and 0.807 µM; in test [10], > 100 µM.

With `COC(=O)C(CC(C)C)NC(=O)C(Cc1cnc[nH]1)NC(=O)CNC(=O)C(NC(=O)C(C)NC(=O)C(Cc1c[nH]c2ccccc12)NC(=O)C(CCC(=O)O)NC(=O)C(N)Cc1c(F)c(F)c(F)c(F)c1F)C(C)C` (stereo unspecified) (H-[Phe(F5)]EWAVGHL-OMe; configuration not given here), the GI50 was 0.991 µM in test [1]; > 100 µM in [2]; > 100 µM in [3]; > 100 µM in test [4]; > 100 µM in [5]; > 100 µM in test [7]. In addition, in test [10], the GI50 was > 100 µM. Also, the TGI in test [1] was > 12.5 µM and 56 µM; in test [2], > 100 µM; in test [3] it was > 100 µM; in test [4], > 100 µM; in test [5], > 100 µM; in [6] it was > 12.5 µM. Moreover, the TGI is > 100 µM in test [7], > 12.5 µM in test [8], > 12.5 µM in test [9] and > 100 µM in test [10].

For the molecule `Cn1c(=O)c2[nH]c(/N=N/N3CCN(CCO)CC3)nc2n(C)c1=O`, the TGI in [1], in [2], in test [3], in [4], in [5] and in test [6] was > 100 µM throughout. For the same molecule, the TGI in [7], in test [8], in [9] and in test [10] was > 100 µM each time.

Regarding `COc1cc2c(cc1OC)-c1ccc3cc4c(cc3c1N(CCN1CCCC1)C2)OCO4`, the GI50 is 1.51 µM in [1]; 0.0696 µM in [2]; 0.538 µM in test [3]; 0.228 µM in [4]; 0.574 µM in test [5]; 2.05 µM in test [6]. The GI50 was 0.953 µM in test [7], 0.361 µM in test [8], 0.217 µM in [9] and 0.472 µM in test [10]. The TGI was determined as 4.09 µM in [1]; 1.23 µM in test [2]; 1.99 µM in [3]; 3.44 µM in [4]; 1.89 µM in [5]; 14.2 µM in [6]. In addition, the TGI in [7] was 7.31 µM; in [8], 2.28 µM; in test [9] it was 1.43 µM; in [10] it was 2.28 µM.

In the case of `c1ccc2nc(Cn3c[n+](Cc4ccc5ccccc5n4)c4ccccc43)ccc2c1`, the GI50 in test [1] was 7.08 µM; in [2], 1.69 µM; in test [3], 1.61 µM; in [4] it was 3.37 µM; in test [5] it was 1.99 µM; in test [6] it was 1.26 µM. Besides, the GI50 in test [7] is 5.7 µM; in [8], 0.785 µM; in test [9], 1.56 µM; in test [10], 3.3 µM. Also, the TGI is 21.7 µM in test [1]; 5.48 µM in test [2]; 4.54 µM in test [3]; 13 µM in test [4]; 6.99 µM in test [5]; 4.7 µM in test [6]. In addition, the TGI stood at 23.7 µM in [7], 9.65 µM in test [8], 9.72 µM in test [9] and 15.4 µM in test [10].

With `O=C(O)CS(=O)(=O)C(c1ccccc1)c1ccccc1`, the TGI in [1], in test [2], in test [3], in test [4], in test [5] and in test [6] was > 100 µM throughout. The TGI in [7], in test [8], in test [9] and in test [10] was > 100 µM in each case.

`C=C(C)[C@@H]1CC[C@]2(C(=O)NCCCN)CC[C@]3(C)[C@H](CC[C@@H]4[C@@]5(C)CC[C@H](O)C(C)(C)[C@@H]5CC[C@]43C)[C@@H]12`: the GI50 in test [1] was 38.9 µM; in test [2], 9.05 µM; in [3], 17.3 µM; in [4], 12.9 µM; in test [5] it was 24.7 µM; in test [6] it was 23.3 µM. For the same molecule, the GI50 in [7] was 23.3 µM; in test [8], 13.1 µM; in test [9], 21 µM; in [10], 22.5 µM. Further, the TGI in [1] is > 100 µM; in test [2], > 100 µM; in test [3] it was 52.9 µM; in test [4], 52.8 µM; in [5] it was > 100 µM; in test [6] it was 94.1 µM. The TGI in test [7] is 76.1 µM; in [8] it was 53.2 µM; in [9], 68.9 µM; in test [10], > 100 µM.
